Data: PMC13198257, “An aerosolized dual-action autotaxin inhibitor-PPARγ agonist for the treatment of pulmonary fibrosis” (Cell Reports Medicine, 2026)

Test system: lung gene expression
Assay: RNA sequencing of lung tissue (BLM/EL244 vs BLM)
Format: in vivo, mouse
Settings: lung tissue, BLM/EL244 vs BLM
Procedure: RNA quality was assessed using an Agilent TapeStation 4150 with the High Sensitivity […] ScreenTape (Agilent), according to the manufacturer’s protocols. For library preparation, the QuantSeq 3’mRNA-Seq Library Prep Kit (Lexogen) was used according to manufacturer’s instructions. Briefly, 500 ng of RNA from each sample was used for first-strand synthesis, followed by RNA template removal, and second-strand synthesis initiated by random primers. In-line barcodes were introduced at this step, and this was followed by magnetic bead-based purification. The resulting libraries were amplified for 15 cycles and re-purified, with quantity and quality assessed on a Qubit 4 Fluorometer with the Invitrogen Qubit dsDNA HS Assay and an Agilent Tapestation 4150 with the High Sensitivity D1000 assay kit, respectively. The quantified libraries were pooled equimolarly; 50ng of total library mix was used for Adapter Conversion PCR Amplification using the Universal Library Conversion Kit (App-A), Version: V1.0 (MGI Tech Co., Ltd.), according to the manufacturer’s instructions.
The quantity and quality of the purified adapter conversion PCR (AC-PCR) product were evaluated on a Qubit 4 Fluorometer with the Invitrogen Qubit dsDNA HS Assay and on an Agilent Tapestation 4150 with the High Sensitivity D1000 assay kit, respectively. This was followed by DNA denaturation, Single-Strand Circularisation, Enzymatic Digestion, Enzymatic Digestion Product Cleanup and Quality Control steps on 1 pmol of AC-PCR product, according to the Universal Library Conversion Kit (App-A) User Manual (Version: A3).
Finally, 60 fmol of ssCirDNA were used for DNB preparation and sequencing on a DNBSEQ-G400 platform at the BSRC Alexander Fleming Genomics Facility, using a G400 App-A FCS SE100 High-throughput Sequencing Set (MGI Tech Co., Ltd.), according to the manufacturer’s instructions.
Alignment of the FASTQ files was performed against the mouse genome build mm10 using a custom Bash script.[143] Read counting on the 3′ UTRs and differential expression analysis were conducted using the metaseqR2 bioconductor package.[144] Genes corresponding to the following biotypes were excluded: polymorphic_pseudogene, processed_transcript, pseudogene, IG_V_pseudogene, misc_RNA, IG_C_gene, IG_J_gene, IG_D_gene, IG_LV_gene, TR_V_gene, TR_V_pseudogene, TEC, and processed_pseudogene. Gene counts were normalized with DESEQ[145] through metaseqR2. Genes with more than 10 counts in at least 50% of the samples were kept for further processing. For differential expression analysis, the PANDORA algorithm[146] was used to estimate a meta p-value integrating the results from the DESEQ, DESEQ2,[147] edgeR,[148] limma,[149] NBPSeq,[150] and NOISeq[151] algorithms. All additional parameters were set to default values.
Pathway enrichment analysis was performed for the Gene Ontology Biological process (BP) and Molecular Function (MF) terms through GeneCodis 4.[152] The volcano plots, scatterplots, Venn diagrams, and dot plots were generated using the ggplot2 Bioconductor package.

O=C1NC(=O)C(Cc2ccc(OCCC3CCN(C(=O)OCc4cc(Cl)cc(Cl)c4)CC3)cc2)S1 (centres unmarked) [EL244, 3,5-dichlorobenzyl 4-(2-(4-((2,4-dioxothiazolidin-5-yl)methyl)phenoxy)ethyl)piperidine-1-carboxylate]
Evi2a nFC: 0.57
Fam120b log2 nFC: 0.61
Fam120b nFC: 1.53
Fbln5 log2 nFC: -0.64
Fbln5 nFC: 0.64
Fcer1g log2 nFC: -0.80
Fcer1g nFC: 0.57
Flt1 log2 nFC: 0.58
Flt1 nFC: 1.50
Fmod log2 nFC: -1.79
Fmod nFC: 0.29
Fn1 log2 nFC: -1.69
Fn1 nFC: 0.31
Foxm1 log2 nFC: -1.56
Foxm1 nFC: 0.34
Gas7 log2 nFC: -0.82
Gas7 nFC: 0.57
Gatm log2 nFC: -1.79
Gatm nFC: 0.29
Gen1 log2 nFC: -1.63
Gen1 nFC: 0.32
Gins2 log2 nFC: -1.57
Gins2 nFC: 0.34
Gja4 log2 nFC: -0.81
Gja4 nFC: 0.57
Gm9844 log2 nFC: -0.79
Gm9844 nFC: 0.58
Gm22774 log2 nFC: -2.05
Gm22774 nFC: 0.24
Gm23451 log2 nFC: -1.99
Gm23451 nFC: 0.25
Gm49673 log2 nFC: -0.71
Gm49673 nFC: 0.61
Gpc1 log2 nFC: -0.80
Gpc1 nFC: 0.57
Gtse1 log2 nFC: -1.49
Gtse1 nFC: 0.36
Gxylt2 log2 nFC: -1.47
Gxylt2 nFC: 0.36
Gyg log2 nFC: -0.60
Gyg nFC: 0.66
H2-Aa log2 nFC: -0.68
H2-Aa nFC: 0.62
H2-Eb1 log2 nFC: -0.70
H2-Eb1 nFC: 0.62
H2-M2 log2 nFC: -1.86
H2-M2 nFC: 0.27
H2ac11 log2 nFC: -1.45
H2ac11 nFC: 0.37
H2ac12 log2 nFC: -1.44
H2ac12 nFC: 0.37
Hc log2 nFC: 0.67
Hc nFC: 1.59
Herpud1 log2 nFC: 0.64
Herpud1 nFC: 1.56
Hexb log2 nFC: -0.83
Hexb nFC: 0.56
Hhip log2 nFC: -0.72
Hhip nFC: 0.61
Hif1a log2 nFC: -0.69
Hif1a nFC: 0.62
Hist1h2ao log2 nFC: -1.60
Hist1h2ao nFC: 0.33
Hist1h2ap log2 nFC: -2.04
Hist1h2ap nFC: 0.24
Hmgn3 log2 nFC: -0.64
Hmgn3 nFC: 0.64
Ier3 log2 nFC: -0.63
Ier3 nFC: 0.65
Igf1 log2 nFC: -1.60
Igf1 nFC: 0.33
Igfbp4 log2 nFC: -0.58
Igfbp4 nFC: 0.67
Inhba log2 nFC: -2.22
Inhba nFC: 0.21
Iqgap3 log2 nFC: -2.41
Iqgap3 nFC: 0.19
Itgax log2 nFC: -0.80
Itgax nFC: 0.58
Jpt1 log2 nFC: -0.68
Jpt1 nFC: 0.63
Kank3 log2 nFC: 0.61
Kank3 nFC: 1.53
Kif2c log2 nFC: -1.67
Kif2c nFC: 0.32
Kif11 log2 nFC: -1.74
Kif11 nFC: 0.30
Kif14 log2 nFC: -1.56
Kif14 nFC: 0.34
Kif15 log2 nFC: -1.89
Kif15 nFC: 0.27
Kif20a log2 nFC: -2.52
Kif20a nFC: 0.17
Knstrn log2 nFC: -2.52
Knstrn nFC: 0.17
Lama1 log2 nFC: -2.43
Lama1 nFC: 0.19
Lap3 log2 nFC: -0.71
Lap3 nFC: 0.61
Lbh log2 nFC: -0.66
Lbh nFC: 0.63
Lgals3 log2 nFC: -0.80
Lgals3 nFC: 0.57
Lipa log2 nFC: -0.78
Lipa nFC: 0.58
Lmnb2 log2 nFC: -0.70
Lmnb2 nFC: 0.62
Lockd log2 nFC: -1.59
Lockd nFC: 0.33
Lox log2 nFC: -0.69
Lox nFC: 0.62
Loxl1 log2 nFC: -0.69
Loxl1 nFC: 0.62
Lpl log2 nFC: -0.68
Lpl nFC: 0.62
Ltbp2 log2 nFC: -1.44
Ltbp2 nFC: 0.37
Map2 log2 nFC: -0.67
Map2 nFC: 0.63
Mat2a log2 nFC: 0.59
Mat2a nFC: 1.50
Matk log2 nFC: -1.42
Matk nFC: 0.37
Mcm2 log2 nFC: -0.80
Mcm2 nFC: 0.57
Mcm3 log2 nFC: -0.84
Mcm3 nFC: 0.56
Mcm6 log2 nFC: -0.76
Mcm6 nFC: 0.59
Melk log2 nFC: -1.65
Melk nFC: 0.32
Mest log2 nFC: -2.27
Mest nFC: 0.21
Mex3a log2 nFC: -1.69
Mex3a nFC: 0.31
Mgl2 log2 nFC: -0.72
Mgl2 nFC: 0.61
Mif log2 nFC: -0.72
Mif nFC: 0.61
Mir147 log2 nFC: -1.44
Mir147 nFC: 0.37
Mis18bp1 log2 nFC: -1.46
Mis18bp1 nFC: 0.36
Mki67 log2 nFC: -1.62
Mki67 nFC: 0.33
Mmp2 log2 nFC: -0.81
Mmp2 nFC: 0.57
Mmp12 log2 nFC: -2.48
Mmp12 nFC: 0.18
Mmp13 log2 nFC: -1.80
Mmp13 nFC: 0.29
Ms4a7 log2 nFC: -1.49
Ms4a7 nFC: 0.36
Msr1 log2 nFC: -1.44
Msr1 nFC: 0.37
Mybpc2 log2 nFC: -2.17
Mybpc2 nFC: 0.22
Nans log2 nFC: -0.72
Nans nFC: 0.61
Nek6 log2 nFC: -0.68
Nek6 nFC: 0.63
Nipal3 log2 nFC: 0.64
Nipal3 nFC: 1.56
Npr2 log2 nFC: 0.59
Npr2 nFC: 1.50
Ntrk2 log2 nFC: -1.60
Ntrk2 nFC: 0.33
Nup93 log2 nFC: -0.64
Nup93 nFC: 0.64
Nusap1 log2 nFC: -2.02
Nusap1 nFC: 0.25
Nwd2 log2 nFC: -1.51
Nwd2 nFC: 0.35
Oaf log2 nFC: -0.81
Oaf nFC: 0.57
Olfml2b log2 nFC: -0.82
Olfml2b nFC: 0.57
Ooep log2 nFC: -1.51
Ooep nFC: 0.35
Otud7b log2 nFC: 0.61
Otud7b nFC: 1.53
P3h1 log2 nFC: -0.85
P3h1 nFC: 0.55
P4ha3 log2 nFC: -2.15
P4ha3 nFC: 0.23
Pbk log2 nFC: -2.73
Pbk nFC: 0.15
Pclaf log2 nFC: -2.08
Pclaf nFC: 0.24
Pcmtd1 log2 nFC: 0.63
Pcmtd1 nFC: 1.54
Pdgfc log2 nFC: -1.47
Pdgfc nFC: 0.36
Pdzd2 log2 nFC: 0.60
Pdzd2 nFC: 1.52
Phactr2 log2 nFC: 0.63
Phactr2 nFC: 1.54
Pianp log2 nFC: -1.75
Pianp nFC: 0.30
Pla1a log2 nFC: -1.42
Pla1a nFC: 0.37
Pld4 log2 nFC: -0.66
Pld4 nFC: 0.63
Plk1 log2 nFC: -1.89
Plk1 nFC: 0.27
Plk2 log2 nFC: -0.82
Plk2 nFC: 0.57
Plpp3 log2 nFC: 0.65
Plpp3 nFC: 1.57
Plxdc2 log2 nFC: 0.61
Plxdc2 nFC: 1.53
Pmepa1 log2 nFC: -0.76
Pmepa1 nFC: 0.59
Pole2 log2 nFC: -1.50
Pole2 nFC: 0.35
Pole log2 nFC: -1.58
Pole nFC: 0.34
Por log2 nFC: 0.66
Por nFC: 1.58
Ppa1 log2 nFC: -0.71
Ppa1 nFC: 0.61
Ppp1r9a log2 nFC: 0.61
Ppp1r9a nFC: 1.53
Prc1 log2 nFC: -2.31
Prc1 nFC: 0.20
Prcp log2 nFC: -0.69
Prcp nFC: 0.62
Prdx1 log2 nFC: -0.62
Prdx1 nFC: 0.65
Prrx2 log2 nFC: -1.75
